Laboratory results published in publication PMC6269060, “4-(1H-Pyrazol-1-yl) Benzenesulfonamide Derivatives: Identifying New Active Antileishmanial Structures for Use against a Neglected Disease” (Molecules, 2012).

How the values were obtained:
[1] = test system: Leishmania amazonensis promastigotes; assay: In vitro antileishmanial drug assay, L. amazonensis promastigotes; type: cell-based, Leishmania amazonensis MHOM/BR/77/LTB0016 strain; settings: for S.I (selectivity index: CC50 drug/IC50 drug), Leishmania amazonensis: CC50 on murine peritoneal cells / IC50 on L. amazonensis promastigotes; for IC50: Leishmania amazonensis, promastigotes, 24 h, 26 °C, mean ± S.D. of three determinations
Description: (§1) Parasites in metacyclic phase (4 × 10^6 parasites/mL) were incubated with the derivatives (40–160 mg/mL) solubilized in dimethyl sulphoxide (DMSO, Sigma Chemical Co., St. Louis, MO, USA) at 26 °C for 24 h. The results were expressed as IC50/24 h, the concentration of a compound that caused a 50% reduction in survival/viability compared with non-treated culture. Pentamidine was used as reference drug and all tests were carried out in triplicate. Promastigotes of L. amazonensis (MHOM/BR/77/LTB0016 strain) and L. infantum (syn. chagasi) (MCAN/BR/97/P142 strain) were grown in Schneider’s insect medium (Sigma) at 26 °C in pH 7.2 supplemented with 10–20% (v/v) heat-inactivated fetal calf serum.

[2] = test system: Leishmania infantum (L. chagasi syn.) promastigotes; assay: In vitro antileishmanial drug assay, L. infantum promastigotes; type: cell-based, Leishmania infantum (syn. chagasi) MCAN/BR/97/P142 strain; settings: for S.I (selectivity index: CC50 drug/IC50 drug), Leishmania infantum: CC50 on murine peritoneal cells / IC50 on L. infantum promastigotes; for IC50: Leishmania infantum, promastigotes, 24 h, 26 °C, mean ± S.D. of three determinations
Description: as §1

[3] = In vitro cytotoxicity (MTT); type: cell-based, BALB/c mice; settings: BALB/c, mouse, murine peritoneal adherent cells
Description: The BALB/c mice from Laboratory Animals Nucleus (UFF) were sacrificed to obtain peritoneal cells and for both infection and isolation of Leishmania. The protocol assays was approved by the Institutional Committee of the Center for Biological Evaluation and Care of Research Animals (CEUA-UFF).
BALB/c mice peritoneal cavity cells (4 × 10^5cells/well) were incubated with the derivatives (10, 20, 40 and 80 µg/mL) in 96 wells plate for 24 h in […] RPMI 1640 medium, supplemented with 1 mmol·L^−1L-glutamine, […], penicillin G (10^5 IU·L^−1) and streptomycin sulfate (0.10 g·L^−1) at 37 °C in a humidified 5% CO2 atmosphere. After that, 3-[4,5-dimethylthiazol-2-yl]-2,5-diphenyltetrazolium bromide, MTT (Sigma) was added and the reaction was interrupted with DMSO after 2 h. The results were determined in 540 nm by using a MicroQuant spectrophotometer (Biotek-Instrument Inc., Winooski, VT, USA). All assays were repeated at least four times in quadruplicate. The cytotoxicity profile was expressed as CC50/24 h, the concentration of a compound that caused cytotoxicity compared to non-treated cultures. Index of selectivity (IS) was defined as the ratio of the CC50 value on the macrophage to the IC50 value on the L. amazonensis or L. infantum strains (promastigotes).

Row | IC50 [1] | IC50 [2] | SMILES | S.I (selectivity index: CC50 drug/IC50 drug), Leishmania amazonensis [1] | S.I (selectivity index: CC50 drug/IC50 drug), Leishmania infantum [2] | CC50 at 24 h [3]
1 | 153 ± 220 µM | 138 ± 110 µM | Cc1cc(Cl)n(-c2ccc(NS(=O)(=O)c3ccccc3)cc2)n1 [Compound 3f, N-[4-(5-Chloro-3-methyl-1H-pyrazol-1-yl)phenyl]benzenesulfonamide] | 0.68 | 0.76 | 
2 | 70 ± 20 µM | 59 ± 10 µM | Cc1nn(-c2ccc(S(=O)(=O)Nc3ccccc3)cc2)c(Cl)c1Br [Compound 3b, 4-(4-Bromo-5-chloro-3-methyl-1H-pyrazol-1-yl)-N-phenylbenzenesulfonamide] | 2.05 | 2.44 | 144 µM
3 | 75 ± 10 µM | 99 ± 80 µM | Cc1nn(-c2ccc(S(=O)(=O)Nc3ccc(Br)cc3)cc2)c(Cl)c1Br [Compound 3d, 4-(4-Bromo-5-chloro-3-methyl-1H-pyrazol-1-yl)-N-(4-bromophenyl)benzenesulfonamide] | 0.65 | 0.49 | 
4 | 228 ± 330 µM | 228 ± 190 µM | Cc1nn(-c2ccc(S(N)(=O)=O)cc2)c(Cl)c1Br [Compound 3a, 4-(4-Bromo-5-chloro-3-methyl-1H-pyrazol-1-yl)benzenesulfonamide] | 0.78 | 0.78 | 

Continued, compound first:

Row | SMILES | IC50 [1] | IC50 [2] | S.I (selectivity index: CC50 drug/IC50 drug), Leishmania amazonensis [1] | S.I (selectivity index: CC50 drug/IC50 drug), Leishmania infantum [2] | CC50 at 24 h [3]
5 | Cc1ccc(NS(=O)(=O)c2ccc(-n3nc(C)c(Br)c3Cl)cc2)cc1 [Compound 3c, 4-(4-Bromo-5-chloro-3-methyl-1H-pyrazol-1-yl)-N-(4methylphenyl)benzenesulfonamide] | 318 ± 590 µM | 123 ± 50 µM | 0.51 | 1.33 | 
6 | Cc1nn(-c2ccc(S(=O)(=O)Nc3ccc(Cl)cc3)cc2)c(Cl)c1Br [Compound 3e, 4-(4-Bromo-5-chloro-3-methyl-1H-pyrazol-1-yl)-N-(4-chlorophenyl)benzenesulfonamide] | 72 ± 50 µM | 65 ± 40 µM | 1.61 | 1.78 | 116 µM
7 | N=C(N)c1ccc(OCCCCCOc2ccc(C(=N)N)cc2)cc1 [Pentamidine, reference compound] | 21 µM | 62 µM |  |  | 54 µM
8 | Cc1ccc(S(=O)(=O)Nc2ccc(-n3nc(C)cc3Cl)cc2)cc1 [Compound 3g, N-[4-(5-Chloro-3-methyl-1H-pyrazol-1-yl)phenyl]-4-methylbenzenesulfonamide] | 136 ± 54 µM | 149 ± 120 µM | 1.33 | 1.21 | 
